The assay relates to female Sprague-Dawley rats. Description: Natriuretic activity in anesthetized, catheterized rats under i.v. saline/fructose infusion (method of Kramer et al.). The assay is classed as in vivo. To be noted: 250 micrograms of peptide per rat.

Description: In the test protocol employed, female Sprague-Dawley rats weighing from 206 to 250 g were used as test animals. Before the test, the rats were exposed to a normal diet and had free access to food and water. On the day of the test, the rats were anesthetized with methohexital and catheters were inserted in the aorta and the jugular vein and from there through the abdomen in the bladder.
The animals were then placed into individual cages mounted on a scale. A 0.45% saline solution with 2.5% fructose was then administered to them intravenously at a rate ranging from 33 to 62 microliters per minute so that the body weight remained constant. Two hours after the animals had recovered, 15 minute urine collection periods were initiated and continued throughout the test. The diuretic material to be tested was dissolved (at pH 7.4) in the infusion solution, which contained tris HCl as a buffer. In the case of the fractions characterized by natriuresis, 15 minute urine samples were collected until the sodium excretion had again reached the base line, and the rate of infusion was adjusted so that the body weight remained constant. The arterial blood pressure was monitored throughout the test by means of a pressure measuring apparatus (Statham P-23-Db). The sodium and potassium concentrations in serum and urine were monitored by flame photometry.
250 micrograms of the peptide substance to be tested were administered to each rat.
(2) Sodium excretion in treated rats in micromoles per minute per milligram of administered substance of formula I.
(3) Time of maximum activity (tmax) in minutes.
(4) Increase in natriuresis as quotient F=(Na^+ excretion after treatment)/(Na^+ excretion before treatment).

Gly-Gly: the “(3) Time of maximum activity (tmax)” value lay within 1.5 to 2.5 h and the “(4) Increase in natriuresis as quotient F = (Na+ excretion after treatment)/(Na+ excretion before treatment)” value came to 39.8. Further, the “(2) Na+ excretion in treated rats” value (treated rats, in the i.v. infusion solution, pH 7.4, 15 minute urine collections) was 14.7 micromoles per minute per mill. For the same substance, for the setting “treated rats, urinary K+/Na+ quotient”, the “(2) Q = K+/Na+ in treated rats” value was found to be 0.63.

Values taken from US4727061A, “Pharmaceutical preparations having diuretic activity” (Rohm GmbH, priority 1984, dated 1988).
